Source: BindingDB's records for patent US117730 (Glaxosmithkline Intellectual Property Development, 2023)

biological target: T1, Furin [108-574] (Homo sapiens, UniProt P09958); test: Furin Enzyme Assay
T1 construct: 108-574
Description: Reactions were performed in black 384-well polystyrene low volume plates (Greiner). […] Compounds of the invention were dissolved in DMSO (1.0 mM) and serially diluted 1 to 3 with DMSO through eleven dilutions to provide a final compound concentration range from 0.00017 to 10 μM. 0.05 μL of each concentration was transferred to the corresponding well of an assay plate, and then 5 μL of 40 pM furin enzyme in assay buffer (100 mM HEPES pH7.5, 1 mM CaCl2 and 0.005% Triton X-100) was added using a Multidrop Combi (Thermo) to the compound plates, and mixed by inversion. […] The plates were centrifuged at 500×g for 1 minute and incubated at room temperature for two hours. Enzyme inhibition is then quantified using an Envision instrument (PerkinElmer).

T1 sequence (P09958 108-574): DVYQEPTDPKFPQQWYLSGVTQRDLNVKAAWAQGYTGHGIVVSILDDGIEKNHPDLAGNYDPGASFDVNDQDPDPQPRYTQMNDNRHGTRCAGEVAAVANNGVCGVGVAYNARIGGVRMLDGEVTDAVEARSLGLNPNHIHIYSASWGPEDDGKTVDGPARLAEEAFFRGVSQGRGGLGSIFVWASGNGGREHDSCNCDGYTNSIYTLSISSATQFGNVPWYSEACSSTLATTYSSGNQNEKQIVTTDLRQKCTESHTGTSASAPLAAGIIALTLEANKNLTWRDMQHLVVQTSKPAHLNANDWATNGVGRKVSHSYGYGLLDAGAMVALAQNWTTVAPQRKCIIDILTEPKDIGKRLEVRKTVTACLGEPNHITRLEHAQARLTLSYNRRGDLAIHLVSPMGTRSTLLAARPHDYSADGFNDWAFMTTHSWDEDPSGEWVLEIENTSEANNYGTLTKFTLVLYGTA

Compound | IC50 [pM]
CNC(=O)NCC1CCN(Cc2cc(Oc3cnc(N4CCN(CCC(C)[S+](C)[O-])CC4)nc3)nc(-c3cc(Cl)cc(Cl)c3)c2)CC1 (configuration not stated) [US11773078, Example 17] | 32
COC(=O)NCC1CCN(Cc2cc(Oc3cnc(N4CC5CCC(C4)N5CCC(=O)O)nc3)nc(-c3cc(Cl)cc(Cl)c3)c2)CC1 [US11773078, Example 56] | 32
CNC(=O)OCC1CCN(Cc2cc(Oc3ccc(N4CCN(C)CC4)nc3)nc(-c3cc(Cl)cc(Cl)c3)c2)CC1 [US11773078, Example 67] | 1580
CNC(=O)NCC1CCN(Cc2cc(Oc3cnc(N4CCN(C)CC4)nc3)nc(-c3cc(Cl)cc(Cl)c3)c2)CC1 [US11773078, Example 70] | 32
CC(=O)NCC1CCN(Cc2cc(Cc3cnc(N4CC5CCC(C4)N5C)nc3)nc(-c3cc(Cl)cc(Cl)c3)c2)CC1 [US11773078, Example 71] | 200
CC(=O)NCC1CCN(Cc2cc(Oc3cnc(N4CCN(CCCO)CC4)nc3)cc(-c3cc(Cl)cc(Cl)c3)c2)CC1 [US11773078, Example 113] | < 158
O=C(O)CCC1CCN(Cc2cc(Oc3cnc(N4CCN(CCO)CC4)nc3)cc(-c3cc(Cl)cc(Cl)c3)c2)CC1 [US11773078, Example 114] | < 158
CC(C)(O)CCC1CCN(Cc2cc(Oc3ccc(N4CCNCC4)nc3)nc(-c3cc(Cl)cc(Cl)c3)c2)CC1 [US11773078, Example 120] | 2000
CN1CCC(c2ncc(Oc3cc(CN4CCC(CC(=O)O)CC4)cc(-c4cc(Cl)cc(Cl)c4)n3)cn2)CC(F)C1 (configuration not stated) [US11773078, Example 147] | 631
CC(O)CCN1CCC(c2cnc(Cc3cc(CN4CCC(CC(N)=O)CC4)cc(-c4cc(Cl)cc(Cl)c4)n3)cn2)CC1 (configuration not stated) [US11773078, Example 164] | 3980
CC(=O)NCC1CCN(Cc2cc(Cc3ccc(N4CCN(CCC(=O)O)CC4)nn3)nc(-c3cc(Cl)cc(Cl)c3)c2)CC1 [US11773078, Example 169] | 32
CC(=O)NCC1CCN(Cc2cc(Oc3cnc(N4CCN(C(=O)CCN)CC4)nc3)cc(-c3cc(Cl)cc(Cl)c3)c2)CC1 [US11773078, Example 170] | 794
COC(=O)NC(=O)CCN1CCN(c2ncc(Cc3cc(CN4CCC(CNC(C)=O)CC4)cc(-c4cc(Cl)cc(Cl)c4)c3)cn2)CC1 [US11773078, Example 172] | 251
CC(=O)NCC1CCN(Cc2cc(Oc3cnc(N4CCN(CCC5(C(=O)O)CC5)CC4)nc3)cc(-c3cc(Cl)cc(Cl)c3)c2)CC1 [US11773078, Example 173] | 398
CC(=O)NCC1CCN(Cc2cc(Oc3ccc(N4C[C@H](C)N(CCS(C)(=O)=O)C[C@@H]4C)nc3)nc(-c3cc(Cl)cc(Cl)c3)c2)CC1 [US11773078, Example 183] | 25
CC(=O)NCC1CCN(Cc2cc(Oc3ccc(N4C[C@H](CN)[C@@H](O)C4)nc3)nc(-c3cc(Cl)cc(Cl)c3)c2)CC1 [US11773078, Example 184] | 251

Compound | IC50 [pM]
O=C(O)CC1CCN(Cc2cc(Oc3ccc(C4C[C@@H]5C[C@H]4CN5)nc3)nc(-c3cc(Cl)cc(Cl)c3)c2)CC1 (some centres not stated) [US11773078, Example 187] | 1260
CNC(=O)OCC1CCN(Cc2cc(Oc3cnc(N4CCN(C(C)CCC(=O)O)CC4)nc3)nc(-c3cc(Cl)cc(Cl)c3)c2)CC1 (configuration not stated) [US11773078, Example 208] | 13
CC(=O)NCC1CCN(Cc2cc(Cc3cnc(N4CCN(C(C)CCC(=O)O)CC4)nc3)nc(-c3cc(Cl)cc(Cl)c3)c2)CC1 (configuration not stated) [US11773078, Example 215] | 398
CNC(=O)NCC1CCN(Cc2cc(Cc3cnc(N4CCN(CCC(C)S(C)(=O)=O)CC4)nc3)nc(-c3cc(Cl)cc(Cl)c3)c2)CC1 (configuration not stated) [US11773078, Example 220] | 63
CN1C2CC1CN(c1ncc(Oc3cc(CN4CCC(CC(=O)O)CC4)cc(-c4cc(Cl)cc(Cl)c4)n3)cn1)C2 [US11773078, Example 228] | 2510
CNC(=O)OCC1CCN(Cc2cc(Oc3cnc(N4CCN(CCC(=O)O)CC4)nc3)nc(-c3cc(Cl)cc(Cl)c3)c2)CC1 [US11773078, Example 248] | 32
CC(=O)NCC1CCN(Cc2cc(Oc3ccc(N4CCN(CCCS(C)(=O)=O)CC4)nc3)nc(-c3cc(Cl)cc(Cl)c3)c2)CC1 [US11773078, Example 251] | < 158
CNC(=O)NCC1CCN(Cc2cc(Oc3ccc(N4CCN(CCCS(N)(=O)=O)CC4)nc3)nc(-c3cc(Cl)cc(Cl)c3)c2)CC1 [US11773078, Example 260] | 200
NS(=O)(=O)CCC1CCN(Cc2cc(Oc3ccc(N4CCN(CCC(=O)O)CC4)nc3)nc(-c3cc(Cl)cc(Cl)c3)c2)CC1 [US11773078, Example 277] | 32
CC(=O)NCC1CCN(Cc2cc(Oc3cnc(C4CCN(C(C)CC(=O)O)CC4)nc3)nc(-c3cc(Cl)cc(Cl)c3)c2)CC1 (configuration not stated) [US11773078, Example 282] | 200
CC(=O)NCC1CCN(Cc2cc(Oc3cnc(N4CCN(CCS(=O)(=O)O)CC4)nc3)nc(-c3cc(Cl)cc(Cl)c3)c2)CC1 [US11773078, Example 287] | 2000
CNC(=O)NCC1CCN(Cc2cc(Oc3cnc(N4CCN(CCO)CC4)nc3)cc(-c3cc(Cl)cc(Cl)c3)c2)CC1 [US11773078, Example 313] | < 158
CN1CCN(c2ncc(Oc3cc(CN4CC[C@@H]5[C@H](CC4)[C@H]5C(=O)O)cc(-c4cc(Cl)cc(Cl)c4)n3)cn2)CC1 [US11773078, Example 321] | 794
CN1CCCN(c2ccc(Oc3cc(CN4CC[C@@H]5[C@H](CC4)[C@H]5C(=O)O)cc(-c4cc(Cl)cc(Cl)c4)n3)nn2)CC1 [US11773078, Example 362] | 32
C[C@H](CC1CCN(Cc2cc(Oc3ccc(N4CCN(C)CC4)nn3)nc(-c3cc(Cl)cc(Cl)c3)c2)CC1)C(=O)O [US11773078, Example 364] | 200
CN1C2CCC1CN(c1ncc(Cc3nc(-c4cc(Cl)cc(Cl)c4)cc(CN4CCC(CC(=O)O)CC4)c3F)cn1)C2 [US11773078, Example 378] | 2000
